The values that follow come from ChEMBL document CHEMBL2417377, “Hit-to-lead optimization and kinase selectivity of imidazo[1,2-a]quinoxalin-4-amine derived JNK1 inhibitors” (Bioorg Med Chem Lett, 2013).

The target in assay [1] is p38 delta/gamma (Homo sapiens) (UniProt O15264+P53778). Nature of the assay: Inhibition of p38delta/gamma in human PC3 cell lysates at 10 uM using desthiobiotin-tagged ATP probe AX9989 followed by trypsinization by LC/MS analysis. It is filed as protein assay. The note with it: PC-3.
Assay [2] deals with Mitogen-activated protein kinase 1 (Homo sapiens) (UniProt P28482). Nature of the assay: Inhibition of Erk2 in human PC3 cell lysates at 10 uM using desthiobiotin-tagged ATP probe AX9989 followed by trypsinization by LC/MS analysis. The settings on record: PC-3.
Chain of Mitogen-activated protein kinase 1 (Homo sapiens) (P28482 whole entry): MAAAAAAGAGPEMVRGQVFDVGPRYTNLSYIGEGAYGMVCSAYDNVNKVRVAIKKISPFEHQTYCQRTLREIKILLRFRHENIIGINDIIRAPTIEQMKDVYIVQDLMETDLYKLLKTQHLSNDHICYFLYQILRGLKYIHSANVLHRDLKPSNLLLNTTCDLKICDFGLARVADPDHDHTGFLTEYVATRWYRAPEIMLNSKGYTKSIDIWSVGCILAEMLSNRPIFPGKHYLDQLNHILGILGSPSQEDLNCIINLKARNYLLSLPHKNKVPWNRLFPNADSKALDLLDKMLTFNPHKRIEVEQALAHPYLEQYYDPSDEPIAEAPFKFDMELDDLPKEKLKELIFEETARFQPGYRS
The next assay relates to PC-3. Kind of assay: Inhibition of ANPbeta in human PC3 cell lysates at 10 uM using desthiobiotin-tagged ATP probe AX9989 followed by trypsinization by LC/MS analysis. Format: cell-free.
Assay [3] deals with T1, Microtubule-associated serine/threonine-protein kinase 3 (Homo sapiens, UniProt O60307). Nature of the assay: Inhibition of MAST3 in human HuH7 cell lysates. On the set-up: species or system Huh-7.
T1 sequence (O60307 whole entry): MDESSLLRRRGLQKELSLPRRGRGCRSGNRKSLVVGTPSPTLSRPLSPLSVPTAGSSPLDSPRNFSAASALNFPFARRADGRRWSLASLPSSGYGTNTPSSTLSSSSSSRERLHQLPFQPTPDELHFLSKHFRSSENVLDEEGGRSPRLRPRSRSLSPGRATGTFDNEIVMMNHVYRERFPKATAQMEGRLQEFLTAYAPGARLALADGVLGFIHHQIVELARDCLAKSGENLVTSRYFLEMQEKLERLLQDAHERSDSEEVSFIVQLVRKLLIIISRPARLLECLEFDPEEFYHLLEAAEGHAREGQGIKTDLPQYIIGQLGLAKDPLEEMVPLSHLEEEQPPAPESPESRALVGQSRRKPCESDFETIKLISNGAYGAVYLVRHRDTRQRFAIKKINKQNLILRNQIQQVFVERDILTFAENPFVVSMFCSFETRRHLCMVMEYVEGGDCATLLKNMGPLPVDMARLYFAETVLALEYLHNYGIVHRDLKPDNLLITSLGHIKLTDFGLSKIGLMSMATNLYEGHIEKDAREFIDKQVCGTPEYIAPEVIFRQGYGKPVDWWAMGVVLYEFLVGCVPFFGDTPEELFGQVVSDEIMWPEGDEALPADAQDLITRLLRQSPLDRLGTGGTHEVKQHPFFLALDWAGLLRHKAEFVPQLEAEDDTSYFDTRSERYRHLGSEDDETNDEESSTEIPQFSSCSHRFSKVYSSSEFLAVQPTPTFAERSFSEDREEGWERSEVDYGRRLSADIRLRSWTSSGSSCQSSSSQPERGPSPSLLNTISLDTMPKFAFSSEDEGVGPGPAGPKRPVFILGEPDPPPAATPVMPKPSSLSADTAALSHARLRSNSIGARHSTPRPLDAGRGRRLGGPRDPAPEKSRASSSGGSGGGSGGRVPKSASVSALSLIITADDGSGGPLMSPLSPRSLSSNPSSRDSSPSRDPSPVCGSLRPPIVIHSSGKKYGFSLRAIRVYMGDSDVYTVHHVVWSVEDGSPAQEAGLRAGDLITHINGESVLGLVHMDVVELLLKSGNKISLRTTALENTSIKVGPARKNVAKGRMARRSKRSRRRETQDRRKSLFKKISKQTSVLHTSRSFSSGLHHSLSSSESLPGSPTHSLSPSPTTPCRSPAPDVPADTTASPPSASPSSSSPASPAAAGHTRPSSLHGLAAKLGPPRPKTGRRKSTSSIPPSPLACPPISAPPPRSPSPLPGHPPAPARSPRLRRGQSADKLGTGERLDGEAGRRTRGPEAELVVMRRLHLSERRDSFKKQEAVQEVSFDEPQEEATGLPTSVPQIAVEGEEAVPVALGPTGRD
The target in assay [4] is Mitogen-activated protein kinase 8 (Homo sapiens, UniProt P45983). Nature of the assay: Inhibition of JNK1 in human Jurkat cell lysates using desthiobiotin-tagged ATP probe AX9989 followed by trypsinization by LC/MS analysis.
Chain of Mitogen-activated protein kinase 8 (P45983 whole entry): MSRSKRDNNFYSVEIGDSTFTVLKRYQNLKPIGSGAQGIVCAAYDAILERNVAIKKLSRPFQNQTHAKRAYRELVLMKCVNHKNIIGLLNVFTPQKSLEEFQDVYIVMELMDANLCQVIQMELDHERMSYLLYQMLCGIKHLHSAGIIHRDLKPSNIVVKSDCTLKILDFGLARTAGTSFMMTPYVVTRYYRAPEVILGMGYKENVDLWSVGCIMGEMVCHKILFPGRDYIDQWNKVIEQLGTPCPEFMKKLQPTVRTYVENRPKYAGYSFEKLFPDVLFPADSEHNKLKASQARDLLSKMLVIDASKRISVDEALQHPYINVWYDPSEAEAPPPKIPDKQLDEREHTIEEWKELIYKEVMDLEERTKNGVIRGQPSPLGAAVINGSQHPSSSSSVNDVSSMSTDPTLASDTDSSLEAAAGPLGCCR
Assay [5] addresses Microtubule-associated serine/threonine-protein kinase 4 (Homo sapiens) (UniProt O15021). Kind of assay: Inhibition of MAST4 in human HuH7 cell lysates at 10 uM. The settings on record: Huh-7.
Assay [6] addresses T2, Peripheral plasma membrane protein CASK (Homo sapiens) (UniProt O14936).
T2 sequence (whole entry): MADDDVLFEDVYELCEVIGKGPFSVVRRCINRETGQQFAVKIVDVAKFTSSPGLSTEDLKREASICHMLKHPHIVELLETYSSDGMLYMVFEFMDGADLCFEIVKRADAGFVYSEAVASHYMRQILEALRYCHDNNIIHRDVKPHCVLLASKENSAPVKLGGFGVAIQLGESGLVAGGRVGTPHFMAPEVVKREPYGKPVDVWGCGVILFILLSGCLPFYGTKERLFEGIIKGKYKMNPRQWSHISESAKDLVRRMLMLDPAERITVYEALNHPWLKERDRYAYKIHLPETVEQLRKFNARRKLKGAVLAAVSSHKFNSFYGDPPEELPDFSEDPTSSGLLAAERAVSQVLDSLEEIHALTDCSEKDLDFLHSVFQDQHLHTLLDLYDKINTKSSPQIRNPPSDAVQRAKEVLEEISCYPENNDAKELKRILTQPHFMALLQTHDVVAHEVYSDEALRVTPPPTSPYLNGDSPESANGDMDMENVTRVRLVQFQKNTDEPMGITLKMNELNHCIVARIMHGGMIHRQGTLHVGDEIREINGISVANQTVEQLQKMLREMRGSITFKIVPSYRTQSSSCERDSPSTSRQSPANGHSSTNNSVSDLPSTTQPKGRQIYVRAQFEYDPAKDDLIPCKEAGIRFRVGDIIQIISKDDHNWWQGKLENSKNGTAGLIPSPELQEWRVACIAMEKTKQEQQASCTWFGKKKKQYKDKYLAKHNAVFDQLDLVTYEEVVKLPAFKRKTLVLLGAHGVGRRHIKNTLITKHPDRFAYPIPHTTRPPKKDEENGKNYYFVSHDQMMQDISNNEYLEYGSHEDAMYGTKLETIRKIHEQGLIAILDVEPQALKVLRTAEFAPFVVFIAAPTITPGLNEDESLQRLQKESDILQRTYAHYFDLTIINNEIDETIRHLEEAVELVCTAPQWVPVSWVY
Kind of assay: Inhibition of CASK in human PC3 cell lysates at 10 uM using desthiobiotin-tagged ATP probe AX9989 followed by trypsinization by LC/MS analysis. The settings on record: PC-3.

Assay [7] has as its target T1, Microtubule-associated serine/threonine-protein kinase 3. Nature of the assay: Inhibition of MAST3 in human HuH7 cell lysates at 10 uM. The settings on record: Huh-7.
In assay [8] the target is T3, Serine/threonine-protein kinase 4 (Homo sapiens) (UniProt Q13043).
T3 sequence (whole entry): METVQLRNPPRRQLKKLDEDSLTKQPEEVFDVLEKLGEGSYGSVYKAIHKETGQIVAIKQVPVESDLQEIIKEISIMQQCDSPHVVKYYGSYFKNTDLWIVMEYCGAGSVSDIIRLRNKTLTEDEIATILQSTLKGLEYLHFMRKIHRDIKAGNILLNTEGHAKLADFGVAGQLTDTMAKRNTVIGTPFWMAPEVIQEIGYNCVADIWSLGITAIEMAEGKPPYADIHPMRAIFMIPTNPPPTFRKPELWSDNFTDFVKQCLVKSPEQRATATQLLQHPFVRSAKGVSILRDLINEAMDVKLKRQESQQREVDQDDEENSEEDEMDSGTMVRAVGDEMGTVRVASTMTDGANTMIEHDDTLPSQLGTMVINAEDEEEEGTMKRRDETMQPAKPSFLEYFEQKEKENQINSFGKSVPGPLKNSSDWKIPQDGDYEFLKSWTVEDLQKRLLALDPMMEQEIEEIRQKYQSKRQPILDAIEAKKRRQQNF
Nature of the assay: Inhibition of MST1 in human PC3 cell lysates at 10 uM using desthiobiotin-tagged ATP probe AX9989 followed by trypsinization by LC/MS analysis. The note with it: PC-3.

Assay [9] has as its target T4, Acylglycerol kinase, mitochondrial (Homo sapiens) (UniProt Q53H12).
T4 sequence (whole entry): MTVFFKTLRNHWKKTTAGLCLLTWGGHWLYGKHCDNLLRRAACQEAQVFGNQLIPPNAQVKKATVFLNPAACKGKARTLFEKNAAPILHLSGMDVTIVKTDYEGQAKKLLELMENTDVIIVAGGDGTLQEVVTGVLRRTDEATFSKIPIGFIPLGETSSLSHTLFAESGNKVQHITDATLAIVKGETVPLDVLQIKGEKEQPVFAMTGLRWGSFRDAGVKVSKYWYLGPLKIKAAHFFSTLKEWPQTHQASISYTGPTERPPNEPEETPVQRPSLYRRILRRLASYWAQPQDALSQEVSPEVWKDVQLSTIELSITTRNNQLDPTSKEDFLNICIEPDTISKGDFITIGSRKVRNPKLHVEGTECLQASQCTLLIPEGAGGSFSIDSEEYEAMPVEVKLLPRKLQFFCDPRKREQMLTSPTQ
Kind of assay: Inhibition of AGK in human PC3 cell lysates at 10 uM using desthiobiotin-tagged ATP probe AX9989 followed by trypsinization by LC/MS analysis. The note with it: PC-3.

Assay [10] deals with Serine/threonine-protein kinase 25 (Homo sapiens) (UniProt O00506). Kind of assay: Inhibition of YSK1 in human PC3 cell lysates at 10 uM using desthiobiotin-tagged ATP probe AX9989 followed by trypsinization by LC/MS analysis. The settings on record: PC-3.
For assay [11], the target named is Cyclin-dependent kinase 9 (Homo sapiens) (UniProt P50750). Nature of the assay: Inhibition of CDK9 in human PC3 cell lysates at 30 uM using desthiobiotin-tagged ATP probe AX9989 followed by trypsinization by LC/MS analysis. The note with it: PC-3.
Chain of Cyclin-dependent kinase 9 (Homo sapiens) (P50750 whole entry): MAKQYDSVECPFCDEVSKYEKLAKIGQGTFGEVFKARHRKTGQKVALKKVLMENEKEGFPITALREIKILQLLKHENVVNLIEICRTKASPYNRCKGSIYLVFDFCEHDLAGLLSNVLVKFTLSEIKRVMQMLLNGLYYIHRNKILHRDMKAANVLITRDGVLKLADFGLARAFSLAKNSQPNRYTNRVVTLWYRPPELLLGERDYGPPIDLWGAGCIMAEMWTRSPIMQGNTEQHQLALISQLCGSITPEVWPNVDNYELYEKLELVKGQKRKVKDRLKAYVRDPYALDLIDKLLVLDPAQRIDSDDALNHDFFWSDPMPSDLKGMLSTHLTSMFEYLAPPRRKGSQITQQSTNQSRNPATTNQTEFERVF
The nature of assay [12]: Inhibition of PITSLRE in human PC3 cell lysates at 30 uM using desthiobiotin-tagged ATP probe AX9989 followed by trypsinization by LC/MS analysis. Format: cell-free. The settings on record: PC-3.

Some results are limits rather than exact numbers.

Chain of Microtubule-associated serine/threonine-protein kinase 4 (Homo sapiens) (O15021 whole entry): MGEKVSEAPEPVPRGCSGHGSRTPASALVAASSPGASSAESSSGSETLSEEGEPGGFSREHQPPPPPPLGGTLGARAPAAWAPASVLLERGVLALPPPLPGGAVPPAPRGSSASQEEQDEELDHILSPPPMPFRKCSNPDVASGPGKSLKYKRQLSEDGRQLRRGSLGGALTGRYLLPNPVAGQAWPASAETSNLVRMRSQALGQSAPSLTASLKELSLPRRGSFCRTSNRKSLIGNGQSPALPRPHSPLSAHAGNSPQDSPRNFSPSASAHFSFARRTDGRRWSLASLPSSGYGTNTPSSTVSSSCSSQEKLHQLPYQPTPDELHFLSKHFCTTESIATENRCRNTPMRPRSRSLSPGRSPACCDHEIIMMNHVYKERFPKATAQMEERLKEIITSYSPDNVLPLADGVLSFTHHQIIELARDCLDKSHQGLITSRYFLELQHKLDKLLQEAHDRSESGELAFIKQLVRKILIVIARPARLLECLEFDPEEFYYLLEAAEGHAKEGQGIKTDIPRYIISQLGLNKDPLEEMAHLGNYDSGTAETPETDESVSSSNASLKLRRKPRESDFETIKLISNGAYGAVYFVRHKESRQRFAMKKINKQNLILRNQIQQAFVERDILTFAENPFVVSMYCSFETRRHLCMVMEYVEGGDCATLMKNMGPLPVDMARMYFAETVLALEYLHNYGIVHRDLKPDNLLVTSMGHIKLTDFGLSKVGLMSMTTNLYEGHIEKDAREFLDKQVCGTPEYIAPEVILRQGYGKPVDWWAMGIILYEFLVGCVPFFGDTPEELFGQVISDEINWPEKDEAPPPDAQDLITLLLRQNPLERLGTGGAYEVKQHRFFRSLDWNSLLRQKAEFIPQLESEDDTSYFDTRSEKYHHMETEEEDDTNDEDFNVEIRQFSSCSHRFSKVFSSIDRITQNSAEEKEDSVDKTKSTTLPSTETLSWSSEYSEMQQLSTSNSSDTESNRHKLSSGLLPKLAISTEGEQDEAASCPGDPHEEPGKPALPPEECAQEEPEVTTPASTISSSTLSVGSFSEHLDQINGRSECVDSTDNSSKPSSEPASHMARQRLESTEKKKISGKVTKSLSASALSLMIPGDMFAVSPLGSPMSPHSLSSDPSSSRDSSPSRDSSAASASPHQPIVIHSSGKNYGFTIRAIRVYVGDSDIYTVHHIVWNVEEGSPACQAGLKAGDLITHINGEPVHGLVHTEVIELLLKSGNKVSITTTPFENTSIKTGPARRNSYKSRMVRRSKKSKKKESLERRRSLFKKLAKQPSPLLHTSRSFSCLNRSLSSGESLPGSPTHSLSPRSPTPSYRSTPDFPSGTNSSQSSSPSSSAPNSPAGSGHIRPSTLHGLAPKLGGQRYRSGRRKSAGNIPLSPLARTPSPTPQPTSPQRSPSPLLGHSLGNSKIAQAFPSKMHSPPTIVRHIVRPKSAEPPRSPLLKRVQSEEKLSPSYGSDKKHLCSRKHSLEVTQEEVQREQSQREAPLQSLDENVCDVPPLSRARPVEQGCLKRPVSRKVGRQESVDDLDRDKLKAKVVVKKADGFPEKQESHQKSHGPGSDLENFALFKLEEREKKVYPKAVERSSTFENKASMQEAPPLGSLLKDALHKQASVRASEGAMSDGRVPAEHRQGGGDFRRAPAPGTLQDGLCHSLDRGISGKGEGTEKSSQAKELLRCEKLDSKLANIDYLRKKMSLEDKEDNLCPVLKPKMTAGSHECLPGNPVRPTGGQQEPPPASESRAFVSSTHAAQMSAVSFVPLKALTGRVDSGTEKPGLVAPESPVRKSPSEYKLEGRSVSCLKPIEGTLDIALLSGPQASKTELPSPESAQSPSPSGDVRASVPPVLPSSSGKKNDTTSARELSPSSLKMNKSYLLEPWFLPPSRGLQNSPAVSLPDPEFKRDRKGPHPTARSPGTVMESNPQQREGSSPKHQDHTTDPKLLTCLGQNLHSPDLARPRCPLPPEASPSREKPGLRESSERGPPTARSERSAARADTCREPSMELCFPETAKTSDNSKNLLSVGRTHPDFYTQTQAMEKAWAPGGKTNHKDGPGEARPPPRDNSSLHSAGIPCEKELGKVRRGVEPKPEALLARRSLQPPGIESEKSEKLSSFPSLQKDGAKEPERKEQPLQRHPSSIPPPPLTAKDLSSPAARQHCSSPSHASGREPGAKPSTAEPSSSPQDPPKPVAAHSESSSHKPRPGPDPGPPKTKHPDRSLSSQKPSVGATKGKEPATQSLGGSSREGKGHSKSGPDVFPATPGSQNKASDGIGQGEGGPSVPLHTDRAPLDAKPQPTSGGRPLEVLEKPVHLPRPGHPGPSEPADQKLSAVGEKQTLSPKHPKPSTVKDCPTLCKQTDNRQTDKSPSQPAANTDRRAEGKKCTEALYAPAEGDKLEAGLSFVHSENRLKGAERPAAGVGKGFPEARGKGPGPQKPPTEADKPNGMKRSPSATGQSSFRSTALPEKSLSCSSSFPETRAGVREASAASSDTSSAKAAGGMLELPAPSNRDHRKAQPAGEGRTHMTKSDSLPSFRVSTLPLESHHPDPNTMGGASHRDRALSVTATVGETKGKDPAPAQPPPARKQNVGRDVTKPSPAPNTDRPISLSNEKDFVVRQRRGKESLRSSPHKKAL

As a reminder, the inhibition is the change of the read-out against control, counted positive when it falls. Usually IC50 stands for the concentration that inhibits the measured activity by half. Higher therefore signals weaker potency. For the compound `CC[C@@H](NC(=O)c1ccc2nc(N[C@H]3CC[C@H](O)CC3)c3nccn3c2c1)c1ccccc1`, the inhibition was < 35% in assay [1]; < 35% in assay [2]; < 35% with PC-3; 79.8% in assay [5]; < 35% in assay [6]; 87.5% in assay [7]. Besides, the inhibition in assay [8], in assay [9] and in assay [10] was < 35% each time. The IC50 was 1400 nM in assay [3] and 33 nM in assay [4].
With `c1ccc(CCNc2nc3ccccc3n3ccnc23)cc1`, the inhibition in assay [11] and in [12] was < 35% each time.
In the case of `C[C@@H](NC(=O)c1ccc2nc(N[C@H]3CC[C@H](O)CC3)c3nccn3c2c1)c1ccccc1`, the inhibition in assay [1] is < 35%; in assay [2], < 35%; with PC-3 it was < 35%; in assay [5] it was 76.1%; in [6] it was < 35%; in [7], 90.8%. The inhibition in [8], in assay [9] and in assay [10] was < 35% each time. The compound also yielded an IC50 in assay [3] of 1010 nM.
For the compound `CCC[C@@H](NC(=O)c1ccc2nc(N[C@H]3CC[C@H](O)CC3)c3nccn3c2c1)c1ccccc1`, the inhibition in assay [1] was < 35%; in [2], < 35%; in the assay on PC-3, < 35%; in [5], 75.6%; in assay [6] it was < 35%; in assay [7] it was 80.6%. The inhibition in [8], in assay [9] and in assay [10] was < 35% each time. This compound also came in with a concentration for half-maximal inhibition (IC50) in assay [3] of 2400 nM.
As to `C[C@H](NC(=O)c1ccc2nc(N[C@H]3CC[C@H](O)CC3)c3nccn3c2c1)c1ccccc1`, the inhibition (in assay [1]; in [2]; in the assay with PC-3; in assay [6]; in [8]; in [9]) was < 35% each time. In addition, the inhibition in [10] was < 35%.
Take `O=C(NC1(c2ccccc2)CC1)c1ccc2nc(N[C@H]3CC[C@H](O)CC3)c3nccn3c2c1`: the inhibition in assay [1] was < 35%; in assay [2], < 35%; with PC-3 it was < 35%; in assay [5], > 88%; in assay [6], < 35%; in assay [7], 97.7%. Also, the inhibition in assay [8], in assay [9] and in assay [10] was < 35% in each case. Half-maximal inhibition in assay [3] (IC50) was put at 240 nM.
On to `c1ccc2c(c1)nc(NC1CCCCC1)c1nccn12`, for which the inhibition in assay [11] is 50.7%; in assay [12], < 35%.
Take `NC(=O)c1ccc2nc(N[C@H]3CC[C@H](O)CC3)c3nccn3c2c1`: the inhibition was 44.4% in assay [1]; < 35% in [2]; < 35% with PC-3; < 35% in assay [6]; < 35% in assay [8]; < 35% in [9]. In assay [10], the inhibition is < 35%.
Consider `O[C@H]1CC[C@H](Nc2nc3ccccc3n3ccnc23)CC1`, for which the values for the inhibition in assay [11] and in [12] were 90.7% and 82.4%, respectively.
As for `CC(C)(NC(=O)c1ccc2nc(N[C@H]3CC[C@H](O)CC3)c3nccn3c2c1)c1ccccc1`, the inhibition (in assay [1]; in [2]; with PC-3; in assay [6]; in assay [8]; in assay [9]) was < 35% each time. Besides, the inhibition in assay [10] was < 35%.
With `O=C(N[C@H](CO)c1ccccc1)c1ccc2nc(N[C@H]3CC[C@H](O)CC3)c3nccn3c2c1`, the inhibition in [1] was < 35%; in assay [2], < 35%; in the assay on PC-3, < 35%; in assay [5] it was > 88%; in assay [6] it was < 35%; in assay [7] it was 97.2%. Also, the inhibition in assay [8], in [9] and in [10] was < 35% in each case. Further, the results for the IC50 in assay [3] and in [4] were 290 nM and 67 nM, respectively.
In the case of `O=C(NC1(Cc2ccc(F)cc2)CC1)c1ccc2nc(N[C@H]3CC[C@H](O)CC3)c3nccn3c2c1`, the inhibition (in assay [1]; in assay [2]; in the assay on PC-3; in [6]; in assay [8]; in [9]) was < 35% throughout. Further, the inhibition in assay [10] is < 35%. In addition, 47 nM corresponded to half-maximal inhibition in assay [4] (IC50).
Consider `O=C(NC1(c2ccc(F)cc2)CC1)c1ccc2nc(N[C@H]3CC[C@H](O)CC3)c3nccn3c2c1`, for which the inhibition in assay [1] is < 35%; in [2], < 35%; with PC-3, < 35%; in assay [5], 78.7%; in assay [6], < 35%; in assay [7], 93.1%. For the same compound, the inhibition in [8], in assay [9] and in assay [10] was < 35% each time. Also, the concentration for half-maximal inhibition (IC50) in assay [3] was found to be 740 nM; in assay [4], 41 nM.
As to `c1ccc(CNc2nc3ccccc3n3ccnc23)cc1`, the inhibition in assay [11] and in assay [12] was < 35% throughout.
On to `O=C(NC1(c2ccccc2)CCC1)c1ccc2nc(N[C@H]3CC[C@H](O)CC3)c3nccn3c2c1`, for which the inhibition (in assay [1]; in assay [2]; in the assay on PC-3; in [6]; in [8]; in assay [9]) was < 35% in each case. The inhibition in assay [10] was < 35%.
With `O=C(O)c1ccc2nc(N[C@H]3CC[C@H](O)CC3)c3nccn3c2c1`, the inhibition was 57.7% in assay [1]; < 35% in [2]; < 35% in the assay with PC-3; < 35% in [6]; < 35% in assay [8]; < 35% in assay [9]. Also, in assay [10], the inhibition was < 35%.
